Experimental findings from ChEMBL document CHEMBL6153137, “Design, Synthesis, and Biological Evaluation of Novel Orally Available Covalent CDK12/13 Dual Inhibitors for the Treatment of Tumors” (J Med Chem, 2025) are described below.

Data set [1] can be described thus: Protein binding in mouse plasma assessed as free fraction at 400 uM incubated for 4 hrs by equilibrium dialysis method based LC-MS/MS analysis. Format: ADME, cell-free.
The nature of data set [2]: Permeability of the compound in human Caco-2 cells at 2 uM incubated for 2 hrs by LC-MS/MS analysis. Format: ADME, cell-based. The settings on record: read-out: permeability. A general note: Caco-2 monolayers are a common model of the intestinal barrier.
The nature of data set [3]: GSH reactivity assessed as half life to adduct formation at 1 uM by LC-MS/MS analysis. The data set is classed as physicochemical.
Another data set addresses CDK12/Cyclin K (Homo sapiens, UniProt Q9NYV4). Description: Inhibition of CDK12/Cyclin K (unknown origin) using pS7-CTD peptide and ATP as substrate incubated for 120 mins by ADP-Glo reagent based luminescence analysis. The data set is classed as protein-complex assay.
The nature of data set [4]: Kinetic solubility of the compound in phosphate buffer at pH 7.4 measured after 24 hrs by HPLC-UV analysis. The settings on record: read-out: Kinetic_solubility. Format: physicochemical.
The target of data set [5] is Cyclin-dependent kinase 13/Cyclin-K (Homo sapiens, UniProt Q14004). The data set can be described thus: Inhibition of CDK13/Cyclin K (unknown origin) using pS7-CTD peptide and ATP as substrate incubated for 120 mins by ADP-Glo reagent based luminescence analysis. The data set is classed as protein-complex assay.
Sequence of Cyclin-dependent kinase 13/Cyclin-K (Q14004 whole entry): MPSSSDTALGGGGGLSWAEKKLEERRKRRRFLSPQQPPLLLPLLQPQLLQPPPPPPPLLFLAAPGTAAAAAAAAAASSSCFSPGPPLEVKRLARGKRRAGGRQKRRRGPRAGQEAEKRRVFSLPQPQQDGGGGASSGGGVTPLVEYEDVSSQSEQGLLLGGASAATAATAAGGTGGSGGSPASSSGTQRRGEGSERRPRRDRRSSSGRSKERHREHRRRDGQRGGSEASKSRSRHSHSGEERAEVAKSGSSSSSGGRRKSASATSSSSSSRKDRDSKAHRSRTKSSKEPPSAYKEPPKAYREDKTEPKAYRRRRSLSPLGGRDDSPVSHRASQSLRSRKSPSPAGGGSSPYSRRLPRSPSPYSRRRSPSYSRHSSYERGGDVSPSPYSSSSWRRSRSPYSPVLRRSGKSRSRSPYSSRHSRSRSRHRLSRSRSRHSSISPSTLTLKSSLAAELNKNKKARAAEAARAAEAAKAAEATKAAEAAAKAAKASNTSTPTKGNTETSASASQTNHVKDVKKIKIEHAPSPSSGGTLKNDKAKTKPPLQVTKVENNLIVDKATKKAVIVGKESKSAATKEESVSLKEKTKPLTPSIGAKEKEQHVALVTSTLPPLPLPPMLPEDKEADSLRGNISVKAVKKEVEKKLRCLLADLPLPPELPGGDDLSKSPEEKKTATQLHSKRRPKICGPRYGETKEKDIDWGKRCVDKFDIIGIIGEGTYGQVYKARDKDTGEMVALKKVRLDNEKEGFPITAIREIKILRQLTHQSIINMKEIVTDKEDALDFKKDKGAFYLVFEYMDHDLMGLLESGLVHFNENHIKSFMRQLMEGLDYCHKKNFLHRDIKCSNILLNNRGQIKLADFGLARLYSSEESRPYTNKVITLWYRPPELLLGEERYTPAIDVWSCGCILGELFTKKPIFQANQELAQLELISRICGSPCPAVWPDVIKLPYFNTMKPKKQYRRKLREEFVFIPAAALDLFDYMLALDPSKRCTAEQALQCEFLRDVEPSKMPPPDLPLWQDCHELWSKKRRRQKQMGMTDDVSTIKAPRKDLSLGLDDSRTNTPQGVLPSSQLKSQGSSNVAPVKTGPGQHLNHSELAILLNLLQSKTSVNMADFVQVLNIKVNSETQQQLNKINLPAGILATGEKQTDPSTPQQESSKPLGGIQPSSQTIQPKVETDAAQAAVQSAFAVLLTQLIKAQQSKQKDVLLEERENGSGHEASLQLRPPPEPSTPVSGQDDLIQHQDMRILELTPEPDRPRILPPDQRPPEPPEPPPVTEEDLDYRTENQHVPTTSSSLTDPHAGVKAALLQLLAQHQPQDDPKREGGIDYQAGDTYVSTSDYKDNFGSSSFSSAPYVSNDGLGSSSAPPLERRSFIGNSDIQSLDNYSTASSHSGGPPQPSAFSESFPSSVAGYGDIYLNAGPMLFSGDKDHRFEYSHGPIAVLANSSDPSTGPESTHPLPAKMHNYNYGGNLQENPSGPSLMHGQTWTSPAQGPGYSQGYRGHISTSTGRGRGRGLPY
Sequence of Cyclin-dependent kinase 13/Cyclin-K (O75909 whole entry, further chain): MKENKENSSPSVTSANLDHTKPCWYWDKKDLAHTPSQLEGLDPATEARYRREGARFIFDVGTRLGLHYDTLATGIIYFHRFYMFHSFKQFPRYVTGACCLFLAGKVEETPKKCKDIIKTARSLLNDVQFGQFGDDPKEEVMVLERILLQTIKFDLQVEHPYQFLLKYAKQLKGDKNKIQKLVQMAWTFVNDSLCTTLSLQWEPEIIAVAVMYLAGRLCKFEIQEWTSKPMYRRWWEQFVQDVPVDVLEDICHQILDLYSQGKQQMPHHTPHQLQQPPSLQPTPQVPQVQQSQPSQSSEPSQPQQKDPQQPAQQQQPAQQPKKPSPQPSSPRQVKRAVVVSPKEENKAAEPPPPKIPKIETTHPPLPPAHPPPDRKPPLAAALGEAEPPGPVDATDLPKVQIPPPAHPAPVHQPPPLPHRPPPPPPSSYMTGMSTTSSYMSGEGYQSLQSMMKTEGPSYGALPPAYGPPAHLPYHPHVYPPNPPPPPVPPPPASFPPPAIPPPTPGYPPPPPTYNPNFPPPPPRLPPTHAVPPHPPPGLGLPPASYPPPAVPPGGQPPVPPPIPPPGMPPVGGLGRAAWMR
Data set [6] in a line: GSH reactivity assessed as half life to adduct formation at 10 uM by LC-MS/MS analysis. Format: physicochemical.
A short description of data set [7]: Protein binding in human plasma assessed as free fraction at 400 uM incubated for 4 hrs by equilibrium dialysis method based LC-MS/MS analysis. The data set is classed as ADME, cell-free. For orientation: Equilibrium dialysis compares concentrations on both sides of a semipermeable membrane.
Data set [8] can be described thus: Volume of distribution at steady state in CD-1 mouse at 1 mg/kg, iv measured for 24 hrs by LC-MS/MS analysis. The data set is classed as ADME, organism-based. To be noted: in vivo, read-out: Vdss.
In a further data set the test system is SUM149PT. The data set can be described thus: Antiproliferative activity against human SUM149PT cells assessed as inhibition of cell growth incubated for 7 days by CellTiter-Glo reagent based luminescence analysis. To be noted: 168 h. Format: functional. A general note: ATP-based viability assays read luminescence as a measure of living cells.
Data set [9] in a line: Toxicity against Balb/c mouse xenografted with human SUM149PT cells assessed as reduction in body weight at 20 mg/kg, po administered once daily via gavage for 2 days and measured after second dose. The data set is classed as organism-based. Further details: scale not given: the % may be the effect or the level left. To be noted: in vivo, 48 h, time 2 day.
Data set [10] can be described thus: GSH reactivity assessed as half life to adduct formation at 0.1 uM by LC-MS/MS analysis. The data set is classed as physicochemical.
Data set [11] is described as follows: Clearance in CD-1 mouse at 1 mg/kg, iv measured for 24 hrs by LC-MS/MS analysis. The settings on record: in vivo. The data set is classed as ADME, organism-based.
Data set [12] can be described thus: AUC (0 to infinity) in CD-1 mouse at 5 mg/kg, po by LC-MS/MS analysis. The data set is classed as ADME, organism-based. The settings on record: in vivo.
The nature of data set [13]: AUC (0 to infinity) in CD-1 mouse at 1 mg/kg, iv by LC-MS/MS analysis. Format: ADME, organism-based. To be noted: in vivo.
Data set [14] in a line: Cmax in CD-1 mouse at 5 mg/kg, po measured for 24 hrs by LC-MS/MS analysis. Format: ADME, organism-based. To be noted: in vivo.
Data set [15] can be described thus: Half life in CD-1 mouse at 5 mg/kg, po measured for 24 hrs by LC-MS/MS analysis. Format: ADME, organism-based. The settings on record: in vivo.
Data set [16] in a line: Oral bioavailability in CD-1 mouse at 5 mg/kg measured for 24 hrs by LC-MS/MS analysis. The settings on record: in vivo. Format: ADME, organism-based.

Structures are written as SMILES. pIC50: −log10 of the molar value. Converted amounts (≈) assume the structure as drawn.

Sequence of CDK12/Cyclin K (O75909 whole entry): as the sequence (O75909 whole entry, further chain) above
Sequence of CDK12/Cyclin K (Q9NYV4 whole entry): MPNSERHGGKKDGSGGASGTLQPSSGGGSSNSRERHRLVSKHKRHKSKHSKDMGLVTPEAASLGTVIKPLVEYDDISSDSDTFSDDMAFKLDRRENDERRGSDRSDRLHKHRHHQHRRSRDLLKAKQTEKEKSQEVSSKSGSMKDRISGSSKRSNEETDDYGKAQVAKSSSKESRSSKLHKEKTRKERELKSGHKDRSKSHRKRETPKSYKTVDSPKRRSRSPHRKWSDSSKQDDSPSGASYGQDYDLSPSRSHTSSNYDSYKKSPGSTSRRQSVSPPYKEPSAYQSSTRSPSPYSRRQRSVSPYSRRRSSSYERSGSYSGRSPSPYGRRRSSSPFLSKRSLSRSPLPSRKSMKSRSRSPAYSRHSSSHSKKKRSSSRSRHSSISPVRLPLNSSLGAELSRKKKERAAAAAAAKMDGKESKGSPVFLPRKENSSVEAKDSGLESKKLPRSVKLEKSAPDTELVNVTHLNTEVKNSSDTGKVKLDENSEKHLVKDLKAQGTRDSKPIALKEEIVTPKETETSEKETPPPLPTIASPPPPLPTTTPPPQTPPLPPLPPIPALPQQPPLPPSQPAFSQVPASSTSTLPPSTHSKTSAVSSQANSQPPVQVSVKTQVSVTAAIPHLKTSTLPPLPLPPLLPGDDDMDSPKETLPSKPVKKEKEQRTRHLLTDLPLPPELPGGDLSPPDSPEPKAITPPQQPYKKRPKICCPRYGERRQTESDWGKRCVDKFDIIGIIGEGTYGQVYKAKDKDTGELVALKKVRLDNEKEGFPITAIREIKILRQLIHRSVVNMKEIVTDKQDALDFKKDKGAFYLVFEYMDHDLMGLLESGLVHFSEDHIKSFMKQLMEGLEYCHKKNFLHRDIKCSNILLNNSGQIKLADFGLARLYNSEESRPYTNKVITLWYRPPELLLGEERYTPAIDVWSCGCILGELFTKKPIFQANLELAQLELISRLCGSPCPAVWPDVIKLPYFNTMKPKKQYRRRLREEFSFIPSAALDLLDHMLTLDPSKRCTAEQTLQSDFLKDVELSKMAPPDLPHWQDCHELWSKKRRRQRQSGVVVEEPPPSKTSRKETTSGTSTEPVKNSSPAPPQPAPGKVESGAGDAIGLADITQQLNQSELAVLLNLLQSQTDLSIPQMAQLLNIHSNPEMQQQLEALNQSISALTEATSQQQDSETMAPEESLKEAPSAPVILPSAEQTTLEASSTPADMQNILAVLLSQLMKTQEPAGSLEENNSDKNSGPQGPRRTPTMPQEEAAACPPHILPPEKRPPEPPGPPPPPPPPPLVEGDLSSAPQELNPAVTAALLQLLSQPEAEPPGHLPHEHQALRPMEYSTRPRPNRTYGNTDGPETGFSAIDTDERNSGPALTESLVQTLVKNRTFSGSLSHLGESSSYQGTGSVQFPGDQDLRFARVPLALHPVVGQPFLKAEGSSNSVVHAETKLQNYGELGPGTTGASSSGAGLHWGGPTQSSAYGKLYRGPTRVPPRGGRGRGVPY

Consider `C=CC(=O)Nc1ccc(C(=O)N2CC[C@@H](Nc3ncc(Cl)c(OC)n3)C2)cc1`, for which the fraction unbound at 4 h, 400 µM in data set [1] came to 0.038; in data set [7] it was 0.003. Also, the Papp at 2 h, 2 µM in data set [2] was 2.87 ×10⁻⁶ cm/s. The t1/2 amounted to 40.2 min in data set [3], 43 min in data set [6] and 39.7 min in data set [10]. Besides, the pIC50 is 8.16 against CDK12/Cyclin K, 8.04 in data set [5] and 8.58 in the data set with SUM149PT. Further, the solubility kinetic at 24 h in data set [4] turned out to be 48.2 µg/mL (≈ 120 µM). Moreover, the Vd in data set [8] came to 0.66 L/kg. For the same molecule, the Activity in data set [9] was 10%.
On to `C=CC(=O)N1CCc2c(nc(C)nc2N2CC[C@@H](Nc3ncc(Cl)c(OC)n3)C2)C1`, for which the pIC50 in data set [5] was 7.13; in the data set on SUM149PT it was 6.81.
For the molecule `C=CC(=O)N1CCc2c(nc(OC)nc2N2CC[C@@H](Nc3ncc(Cl)c(OC)n3)C2)C1`, the pIC50 was 7.02 in [5] and 6.47 with SUM149PT.
In the case of `CC#CC(=O)N1CCc2c(ncnc2N2CC[C@@H](Nc3ncc(Cl)c(OC)n3)C2)C1`, in data set [11], the clearance is 179 mL/min/kg. For the same molecule, the t1/2 in data set [3] is 324.4 min; in [6], 379.4 min; in data set [10], 315.5 min. Besides, the AUC(0-inf) in data set [12] came to 54.7 ng·h/mL; in data set [13], 93.8 ng·h/mL. The figures for the pIC50 (in [5]; in the data set with SUM149PT) were 6.63 and 6.65, respectively. In [8], the Vd was found to be 0.35 L/kg. In data set [14], this molecule registered a Cmax of 101 ng/mL. The molecule also had a half-life in data set [15] of 15 min. In addition, the bioavailability in [16] worked out at 11.2%.
On to `C=CC(=O)[C@H]1CC[C@H](C(=O)N2CC[C@@H](Nc3ncc(Cl)c(OC)n3)C2)CC1`, for which the pIC50 on CDK12/Cyclin K is 5.43; in data set [5], 5.56.
For `C=CC(=O)N1CCc2c(nc(N3CCN(C)C(=O)C3)nc2N2CC[C@@H](Nc3ncc(Cl)c(OC)n3)C2)C1`, the pIC50 with SUM149PT is 6.56.
For the molecule `C=CC(=O)N1CCC(C(=O)N2CC[C@@H](Nc3ncc(Cl)c(OC)n3)C2)CC1`, the results for the negative logarithm of the IC50 (pIC50) (against CDK12/Cyclin K; in data set [5]) were 5.64 and 5.76, respectively.
For the molecule `C=CC(=O)NC12CC(C(=O)N3CC[C@@H](Nc4ncc(Cl)c(OC)n4)C3)(C1)C2`, the pIC50 against CDK12/Cyclin K was 5.62; in data set [5], 5.56.
For `C=CC(=O)N1CCc2c(nc(N3CCCC3=O)nc2N2CC[C@@H](Nc3ncc(Cl)c(OC)n3)C2)C1`, the pIC50 in data set [5] was 6.70; in the data set with SUM149PT it was 6.34.
On to `C=CC(=O)N1CCc2c(ccnc2N2CC[C@@H](Nc3ncc(Cl)c(OC)n3)C2)C1`, for which the pIC50 in [5] is 6.97; in the data set on SUM149PT it was 6.50.
`C=CC(=O)N1CCc2c(nc(N3CCOCC3)nc2N2CC[C@@H](Nc3ncc(Cl)c(OC)n3)C2)C1`: the figures for the pIC50 (in [5]; in the data set with SUM149PT) were 6.78 and 6.27, respectively.
Turning to `C=CC(=O)N1Cc2ccnc(N3CC[C@@H](Nc4ncc(Cl)c(OC)n4)C3)c2C1`, the pIC50 in data set [5] is 7.12.
Take `C=CC(=O)N1CC2(CCC(C(=O)N3CC[C@@H](Nc4ncc(Cl)c(OC)n4)C3)CC2)C1`: the figures for the pIC50 (against CDK12/Cyclin K; in data set [5]) were 6.17 and 6.12, respectively.
With `C=CC(=O)N1Cc2ncnc(N3CC[C@@H](Nc4ncc(Cl)c(OC)n4)C3)c2C1`, the values for the pIC50 (in data set [5]; with SUM149PT) were 6.47 and 6.29, respectively.

As usually defined, the fraction unbound is free concentration divided by total concentration. By pIC50 is commonly meant −log10 of the IC50, conventionally taken in molar units. Usually clearance stands for a measure of how efficiently the substance is removed, as volume per time. What is called AUC(0-inf) is total exposure, with the tail of the curve extrapolated. By Cmax is commonly meant the peak of the concentration-time curve. Usually half-life stands for the time in which the quantity being followed falls by half. As usually defined, the bioavailability is dose-corrected exposure relative to a reference, in per cent.
